# Read-outs that look alike come from different tables or passages of the source.
# Assays:
# [1] = system: S. aureus 6850; assay: Over-night treatment, bacterial titers (CFU/ml), strain 6850; assay type: cell-based, Staphylococcus aureus; conditions: for effect on bacterial titers: over-night treatment, concentrations as indicated in figures
# [2] = system: H1N1pdm09; assay: Lung virus titration assay in mice (Example 11); assay type: in vivo, C57BL/6 mice; conditions: for virus titer in the lung (control set to 100%): 24 h after infection
# Procedure: (A) After H1N1pdm09 infection female C57BL/6 mice were treated with either 2.8, 8.4 or 25 mg/kg PD-0184264 (left side) or with 25, 75 or 150 mg/Kg […] (left side) the oral route. 24 hrs after infection the animals were killed and lung was taken to prepare a 10% suspension. Virus titer was determined using the standard method. Virus titer of mice treated with the two MEK-inhibitors were compared to virus titer of mice treated with solvent (Control) alone. Virus tier in the lungs of control mice was set to 100% (black bar). Graphpad Prism 7 software was used to illustrate both figures.
# For oral application of 25 mg/kg, 2.5 mg of PD-0184264 were dissolved in 50 μl DMSO (Sigma-Aldrich, Germany) and further diluted with 0.15 ml Cremophor EL (Merck-Millipore, Germany) and 0.8 ml PBS (Gibco, Germany). For application of 8.4 mg/kg and 2.8 mg/kg, 0.84 mg or 0.28 mg PD-0184264 were dissolved with 50 μl DMSO (Sigma-Aldrich, Germany) and further diluted with 0.15 ml Cremophor EL/0.8 ml PBS.
# Eight week old female C57Bl/6 mice (Charles River Laboratories, Germany) with a body weight of 21.0-24.0 g at administration were used for antiviral studies. The animals were normally fed. Drinking water was available ad libitum.
# Drugs were administrated using a single dosing on test day 1 by oral gavage. The application speed was 15 s per dose with an administration volume of 200 μl.
# Mice were sacrificed 24 h post infection and lungs were weighed, transferred into a Lysing Matrix D tube (MP Bio) and BSS was applied in an amount of the 10-fold volume of the lung. Organs were shredded using the FastPrep FP 120 (Savant). To remove the cell debris the homogenates were centrifuged for 15 min at 2000 rpm and the supernatant collected. The determination of virus titer in homogenates was performed using the AVICEL® plaque assay as described previously (Haasbach et al. 2011, Mastrosovich et al. 2006).
# [3] = system: influenza virus; conditions: mouse model, cited from earlier work; for effect of treatment started late post infection: 48 h or more post infection, previous studies
# [4] = system: S. aureus; assay: Resistance development under constant treatment for 17 days; assay type: cell-based, Staphylococcus aureus; conditions: 24 h cycles repeated for 17 days
# [5] = system: influenza virus strain A/Regensburg/D6/2009, (RB1, H1N1pdm09); assay: Lung virus titer in influenza-infected mice (Example 1); assay type: in vivo, C57BL/6 mice
# Procedure: 8 weeks old C57BL/6 mice (five per group) were infected with 1.5×10^5 PFU (5×MLD50) of the influenza virus strain A/Regensburg/D6/2009, (RB1, H1N1pdm09). […] All animals received a volume of 200 μl per os. Mice were sacrificed 24 h post infection and lungs were weighed, transferred into a Lysing Matrix D tube (MP Bio) and BSS (buffered salt solution) in an amount of the 10-fold volume of the lung was applied to the samples. Organs were shredded using the FastPrep FP 120 (Savant). To remove the cell debris the homogenates were centrifuged for 15 min at 2000 rpm and the supernatant collected. The determination of virus titer in homogenates was performed using the AVICEL® plaque assay. Results are presented in FIG. 1 as virus titer (log 10) pfu/ml (left) or % virus titer (right). Virus titer was determined by two investigators independently. Mean values from all titrations were presented.
# [6] = system: MRSA strain USA300; assay: Over-night treatment, bacterial titers (CFU/ml), MRSA USA300; assay type: cell-based, Staphylococcus aureus; conditions: for effect on bacterial titers: over-night treatment, concentrations as indicated in figures
# [7] = system: A549 cells infected with IAV (H1N1) and/or S. aureus 6850; assay type: cell-based
# [8] = system: S. aureus 6850; assay: Time-of-addition assay, bacterial growth; assay type: cell-based, Staphylococcus aureus
# [9] = system: S. aureus strain 6850; assay: Bacterial growth under heat stress, strain 6850; assay type: cell-based, Staphylococcus aureus; conditions: 20 μM over night, then 42° C. for 6 h
# Procedure: (§1) As the kinase is known to play an important role in bacterial stress resistance, bacterial growth under heat stress was monitored after treatment of the bacteria with the inhibitor PD-0184264. S. aureus strain 6850 and MRSA strain USA300 were treated over night with either solvent or 20 μM of the PD-0184264. The next day subcultures with the same amount of bacteria were prepared (confirmed by OD600 and plating on BHI agar) and further incubated at 42° C. for 6 h. Bacterial titers were then calculated via plating of serial dilutions on BHI agar plates. […] This is both observed for the methicillin-sensitive strain 6850 (black bars) as well as for the MRSA strain USA300 (grey bars). Impaired stress tolerance in the presence of the inhibitor is another indication that PD-0184264 directly targets the kinase PknB, which is an important mediator of stress resistance. In summary, the data provide strong circumstantial evidence, that PD-0184264 elicits its antibacterial action by inhibition of the bacterial kinase PknB.
# [10] = system: MRSA strain USA300; assay: Bacterial growth under heat stress, MRSA USA300; assay type: cell-based, Staphylococcus aureus; conditions: 20 μM over night, then 42° C. for 6 h
# Procedure: as §1
# [11] = system: Streptococcus pneumoniae strains TIGR4 (serotype 4) and D39 wt (serotype 2); assay: Growth of Streptococcus pneumoniae (OD600, CFU/ml); assay type: cell-based; conditions: over-night treatment, different concentrations
# Procedure: Additionally, these kinases share high homology to cellular MAP kinases (e.g. ERK, JNK, p38). […] Thus, the impact of PD-0184264 on different strains of Streptococci pneumonia was analyzed. Streptococcus pneumoniae strains can be divided into different serotypes, which differ in their virulence and overall pathogenicity. To test for a serotype- or strain-independent effect, we used the encapsulated strains D39 and TIGR4, which are both virulent, but belong to different serotypes. […] Then, the OD600 was measured again (Results shown in FIG. 11A) and dilution series were objected to BHI agar plates to determine bacterial titers (Results shown in FIG. 11B).
# [12] = system: A549 cells; assay: A549 cell viability (trypan blue) and LDH release; assay type: cell-based, human; conditions: 1, 5, 10, 20, 50 or 100 μM, 24 or 48 hours
# Procedure: To rule out that the reduction in viral and intracellular bacterial replication was a result of a cytotoxic effect of PD-0184264 on A549 cells, cell viability in presence of increasing concentrations was monitored for 24 and 48 hours. Additionally, a LDH-Assay was performed to determine membrane rupture due to inhibitor treatment. […] A549 cells were treated for 24 (as shown in FIGS. 15A and C) or 48 (as shown in FIGS. 15B and D) hours with increasing concentrations of PD-0184264 (1, 5, 10, 20, 50 or 100 μM). After the incubation times, supernatants were taken for measurement of LDH release (shown in FIGS. 15C, D) using the CytoSelect LDH Cytotoxicity Assay Kit according to the manufacturer's instructions. Additionally, viable cells were counted by staining with trypan blue. Cell viability was normalized to DMSO-treated cells and is shown as % viability. […] Statistical significance was calculated by one-way ANOVA followed by Dunnett's multiple comparisons test (* p<0.05; ** p<0.01; 27 *** p<0.001).
# [13] = system: A549 cells; assay: WST-assay; assay type: cell-based, human; conditions: 24 h, FIG. 17C
# Procedure: A549 cells were seeded in a 96-well flat-bottom tissue plate (Greiner, Germany) and were grown overnight. […] Thereafter, 10 μl WST-1 reagent (Roche, Germany) was added to the culture medium and incubated for four hours. During this time, the stable tetrazolium salt WST-1 was cleaved to a soluble formazan by metabolically active cells in the culture. After this incubation period, the formazan dye formed was quantitated with ELISA reader at 405 nm. The measured absorbance directly correlated to the number of viable cells.
# [14] = system: strain A/Regensburg/D6/2009 Influenza H1N1pdm09; assay: Survival of infected mice with late start of treatment; assay type: in vivo, C57BL/6 mice; conditions: 25 mg/kg oral BID
molecule,measurement,setting,value
"O=C(NOCC1CC1)c1ccc(F)c(F)c1Nc1ccc(I)cc1Cl [CI-1040, 2-(2-chloro-4-iodophenylamino)-N-(cyclopropylmethoxy)-3,4-difluoro benzamide, reference compound]",effect on bacterial titers,[1],effective
same,doses showing any effect in reduction of virus titer,"[2]; oral, 25, 75 or 150 mg/kg tested",≥ 75 mg/kg
same,treatment window post infection,[3]; Haasbach et al. 2017 and further experiments of the applicant,at least 48 h
CC[C@H]1OC(=O)[C@H](C)[C@@H](O[C@H]2C[C@@](C)(OC)[C@@H](O)[C@H](C)O2)[C@H](C)[C@@H](O[C@@H]2O[C@H](C)C[C@H](N(C)C)[C@H]2O)[C@](C)(O)C[C@@H](C)C(=O)[C@H](C)[C@@H](O)[C@]1(C)O [Erythromycin],resistance development,[4],readily develop resistances
"O=C(O)c1ccc(F)c(F)c1Nc1ccc(I)cc1Cl [PD-0184264, 2-(2-chloro-4-iodophenylamino)-N-3,4-difluoro benzoic acid]","virus titer in the lung, effect compared with CI-1040","[5]; 25 mg/kg PD-0184264 per os in an 8 h interval, 24 h post infection, FIG. 1",same effect as 150 mg/kg CI-1040
same,efficacy in vivo by oral administration,[5]; 25 and 75 mg/kg per os,effective
same,bacterial growth,"[1]; 10 μM, FIG. 4 (strains 6850 and USA300)",significant reduction of growth
same,effect on bacterial titers,[1],very strong reduction in bacterial load
same,effect on bacterial titers,[6],very strong reduction in bacterial load
same,concentration at which reduction of the cytopathic effect is already shown,"[7]; co-infection, FIG. 5",15 µM
same,"cytopathic effect (CPE), cell monolayer","[7]; increasing concentrations, 24 h, IAV H1N1 MOI 0.001 and S. aureus 6850 MOI 0.1",reversed in a concentration dependent manner
same,inhibition of bacterial growth compared with all other compounds,"[8]; 0, 3 h and 6 h post inoculation, versus U0126 and gentamicin 0.5 or 2 μg/ml",strongest inhibition of bacterial growth
same,mode of antibacterial action,[8]; after medium exchange and incubation without substances,bacteriostatic rather than a bactericidal action
same,resistance development,[4],did not induce resistance
same,bacterial growth under heat stress,[9],strongly impaired
same,bacterial growth under heat stress,[10],strongly impaired
same,"sensitivity of both serotypes (OD600, bacterial titers)",[11],sensitive
same,"cell toxicity (viability, LDH release)",[12],does not induce cell toxicity
same,CC50,[13],> 1580 µM
same,virus titer in the lung (control set to 100%),[2]; 2.8 mg/kg oral,approx. 70%
same,virus titer in the lung (control set to 100%),[2]; 8.4 mg/kg oral,approx. 20%
same,virus titer in the lung (control set to 100%),[2]; 25 mg/kg oral,approx. 10%
same,mice protected (survival),[14]; treatment started 24 hours after infection,six out of eight
same,mice protected (survival),[14]; treatment started 48 hours after infection,five out of eight
same,mice protected (survival),[14]; treatment started 72 hours after infection,two out of eight
N#CC(=C(/N)Sc1ccccc1N)/C(C#N)=C(\N)Sc1ccccc1N [U0126],effect on bacterial titers,[1],minor reduction in bacterial titers
same,effect on bacterial titers,[6],minor reduction in bacterial titers
CCOC(=O)C1=C[C@@H](OC(CC)CC)[C@H](NC(C)=O)[C@@H](N)C1 [oseltamivir],effect of treatment started late post infection,[3],no longer effective
same,effect of treatment started late post infection,[3]; listed as Tamiflu,no effect
Gentamicin,bacterial titers,"[1]; 0.5 μg/ml, over night",no reduction in bacterial titers
same,bacterial titers,"[6]; 0.5 μg/ml, over night",no reduction in bacterial titers
same,resistance development,[4],resistance development occurred during the first week of treatment

# Source: patent US12350244B2, “MEK-inhibitor for the treatment of viral and bacterial infections” (priority 2019, dated 2025)
